Data published in ChEMBL document CHEMBL1201862, “PubChem BioAssay data set” (2004).
The source made the active and inactive calls.

Key:
Vero = test: Vero E6 cell cytotoxicity, SAR follow-up, cytotoxicity control for West Nile virus antiviral project, synthesized analogs (AID 2244); assay type: functional; conditions: Chlorocebus sabaeus
Cytochrome P450 2D6 = Cytochrome P450 2D6 (Homo sapiens, UniProt P10635);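 further: CYP2D6 member of a cytochrome P450 panel assay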
Cytochrome P450 2C19 = Cytochrome P450 2C19 (Homo sapiens, UniProt P33261); test: Cytochrome panel assay with activity outcomes. Panel member name: p450-cyp2c19 Compounds with AC50 equal or less than 10 uM are considered active; assay type: functional; conditions: read-out: AC50
[1] = cytotoxicity in HEK-293T cells, dose response, cytotoxicity control for BCR NF-kB inhibitor project, luminescence, B-cell screen hits (AID 489021); assay type: functional, cell-based;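 further: HEK-293T cells carrying an NF-kB luciferase reporter; cells exposed to compound for about 14 hours before viability readout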
Prothrombin = Prothrombin (Homo sapiens, UniProt P00734); test: Thrombin 1536 HTS Dose Response Confirmation. [Related pubchem assays: 1046 (Thrombin 1536 HTS; hits were confirmed in this assay)]; assay type: functional
Coagulation factor XII = biological target: T1, Coagulation factor XII (Homo sapiens, UniProt P00748); assay type: functional;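 further: activated factor XIIa alpha cleaving a fluorogenic AMC peptide substrate; inhibitor potency from loss of enzyme activity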
T1 sequence (P00748 whole entry): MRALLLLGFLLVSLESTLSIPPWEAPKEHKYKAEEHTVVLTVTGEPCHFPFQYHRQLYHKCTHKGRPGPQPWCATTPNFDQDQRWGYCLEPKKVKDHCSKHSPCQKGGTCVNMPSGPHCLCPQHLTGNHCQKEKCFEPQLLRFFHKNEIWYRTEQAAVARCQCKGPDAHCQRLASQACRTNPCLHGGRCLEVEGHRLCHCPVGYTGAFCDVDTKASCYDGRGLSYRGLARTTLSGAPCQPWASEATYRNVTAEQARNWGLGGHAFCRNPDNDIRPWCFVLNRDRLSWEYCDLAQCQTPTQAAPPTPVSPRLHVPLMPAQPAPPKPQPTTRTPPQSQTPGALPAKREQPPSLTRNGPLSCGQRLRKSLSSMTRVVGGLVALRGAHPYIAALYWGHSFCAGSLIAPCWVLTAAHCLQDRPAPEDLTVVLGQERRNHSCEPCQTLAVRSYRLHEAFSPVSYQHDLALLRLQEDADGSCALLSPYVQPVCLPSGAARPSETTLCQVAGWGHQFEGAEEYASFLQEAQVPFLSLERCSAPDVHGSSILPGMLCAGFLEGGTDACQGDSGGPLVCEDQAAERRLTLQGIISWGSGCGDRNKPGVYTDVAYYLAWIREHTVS

[2] = biological target: T2, Alkaline phosphatase, tissue-nonspecific isozyme (Homo sapiens, UniProt P05186); test: human TNAP enzyme inhibitors, SAR follow-up, biochemical, luminescent, dose response (AID 1056)
T2 sequence (P05186 whole entry): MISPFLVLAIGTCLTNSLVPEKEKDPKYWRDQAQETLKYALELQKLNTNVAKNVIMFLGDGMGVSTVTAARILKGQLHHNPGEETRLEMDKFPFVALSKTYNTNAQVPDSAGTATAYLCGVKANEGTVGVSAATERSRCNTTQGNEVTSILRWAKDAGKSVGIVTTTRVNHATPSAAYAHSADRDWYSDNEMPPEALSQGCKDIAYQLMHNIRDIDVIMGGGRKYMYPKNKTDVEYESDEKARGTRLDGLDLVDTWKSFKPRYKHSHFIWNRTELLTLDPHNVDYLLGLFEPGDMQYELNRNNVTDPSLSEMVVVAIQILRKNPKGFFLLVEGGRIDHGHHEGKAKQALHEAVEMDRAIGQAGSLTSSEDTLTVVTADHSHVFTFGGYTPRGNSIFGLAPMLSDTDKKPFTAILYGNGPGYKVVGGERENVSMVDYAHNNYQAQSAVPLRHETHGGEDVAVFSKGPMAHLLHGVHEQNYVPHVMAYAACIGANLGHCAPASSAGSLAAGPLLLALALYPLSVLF

[3] = biological target: Glyceraldehyde-3-phosphate dehydrogenase (Homo sapiens, UniProt P04406)
cells = assay type: functional
[4] = THP-1 cell cytotoxicity, dose response, cytotoxicity control for non-replicating M. tuberculosis project (AID 489025); assay type: functional
Streptococcus = test: Group A Streptococcus viability loss, dose response, counter-screen for streptokinase expression inhibitor project, luminescence, BacTiterGlo (AID 1915); assay type: functional, organism-based;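 further: potency for reduction of bacterial viability or growth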
[5] = HepG2 cell cytotoxicity, dose response, cytotoxicity control for non-replicating M. tuberculosis project (AID 489018); assay type: functional; conditions: Mycobacterium tuberculosis
[6] = Vero E6 cell cytotoxicity, dose response, cytotoxicity control for non-replicating M. tuberculosis project, secondary assay (AID 492998); assay type: functional, VeroE6; conditions: Vero C1008
[7] = system: Streptococcus sp. 'group A'; test: growth inhibition of control SK(-) GAS strain, dose response, counter-screen for streptokinase expression inhibitor project, luminescence, kanamycin, BacTiterGlo, confirmation (AID 1900); assay type: functional, organism-based
[8] = cytotoxicity in HEK-293T cells, dose response, cytotoxicity control for TCR NF-kB inhibitor project, luminescence, T-cell screen hits (AID 489026); assay type: functional, cell-based;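 further: cells exposed to compound about 14 hours before the viability readout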
Cytochrome P450 2C9 [9] = biological target: T3, Cytochrome P450 2C9 (Homo sapiens, UniProt P11712); conditions: Potency
[10] = biological target: T4, Replicative DNA helicase DnaB (Mycobacterium tuberculosis, UniProt P9WMR3); test: DnaB intein splicing inhibitors, dose response, biochemical, cell-free fluorescence (AID 449749); assay type: functional
T4 sequence (P9WMR3 whole entry): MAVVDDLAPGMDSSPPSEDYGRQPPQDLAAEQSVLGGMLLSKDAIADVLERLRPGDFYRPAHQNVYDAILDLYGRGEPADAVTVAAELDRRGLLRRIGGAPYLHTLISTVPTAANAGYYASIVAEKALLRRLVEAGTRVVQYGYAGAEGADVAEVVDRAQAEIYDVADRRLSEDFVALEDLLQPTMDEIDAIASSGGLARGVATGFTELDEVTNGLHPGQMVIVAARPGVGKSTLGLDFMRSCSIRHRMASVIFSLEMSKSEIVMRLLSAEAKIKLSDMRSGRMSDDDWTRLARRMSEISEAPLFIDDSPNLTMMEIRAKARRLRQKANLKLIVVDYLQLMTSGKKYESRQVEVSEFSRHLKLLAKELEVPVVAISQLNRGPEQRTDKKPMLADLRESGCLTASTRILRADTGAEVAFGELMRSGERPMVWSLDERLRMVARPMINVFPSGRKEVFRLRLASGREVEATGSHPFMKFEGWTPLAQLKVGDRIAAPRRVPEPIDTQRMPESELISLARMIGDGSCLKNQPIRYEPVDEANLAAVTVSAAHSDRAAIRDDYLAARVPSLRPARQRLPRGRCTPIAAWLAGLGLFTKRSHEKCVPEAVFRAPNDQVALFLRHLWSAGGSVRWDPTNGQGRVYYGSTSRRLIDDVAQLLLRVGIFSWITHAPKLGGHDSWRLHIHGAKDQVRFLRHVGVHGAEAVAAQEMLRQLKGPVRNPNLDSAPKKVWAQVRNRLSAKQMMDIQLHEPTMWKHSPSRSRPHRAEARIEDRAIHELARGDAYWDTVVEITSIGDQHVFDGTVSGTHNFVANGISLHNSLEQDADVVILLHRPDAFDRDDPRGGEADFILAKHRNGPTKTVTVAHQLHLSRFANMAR

[11] = biological target: Potassium voltage-gated channel subfamily KQT member 2 (Rattus norvegicus, UniProt O88943, W236L); test: KCNQ2 channel potentiators, dose response, mechanism study for KCNQ2 potentiator project, cell-based, automated electrophysiology (AID 2603); assay type: functional
Protein RecA = biological target: T5, Protein RecA (Mycobacterium tuberculosis, UniProt P9WHJ3); test: Fluorescence Cell-Free Homogeneous Dose Retest to Identify Inhibitors of RecA-Intein Splicing Activity. [Related pubchem assays (depositor defined):AID2097, AID2223, AID489010, AID492950]; assay type: functional
T5 sequence (P9WHJ3 whole entry): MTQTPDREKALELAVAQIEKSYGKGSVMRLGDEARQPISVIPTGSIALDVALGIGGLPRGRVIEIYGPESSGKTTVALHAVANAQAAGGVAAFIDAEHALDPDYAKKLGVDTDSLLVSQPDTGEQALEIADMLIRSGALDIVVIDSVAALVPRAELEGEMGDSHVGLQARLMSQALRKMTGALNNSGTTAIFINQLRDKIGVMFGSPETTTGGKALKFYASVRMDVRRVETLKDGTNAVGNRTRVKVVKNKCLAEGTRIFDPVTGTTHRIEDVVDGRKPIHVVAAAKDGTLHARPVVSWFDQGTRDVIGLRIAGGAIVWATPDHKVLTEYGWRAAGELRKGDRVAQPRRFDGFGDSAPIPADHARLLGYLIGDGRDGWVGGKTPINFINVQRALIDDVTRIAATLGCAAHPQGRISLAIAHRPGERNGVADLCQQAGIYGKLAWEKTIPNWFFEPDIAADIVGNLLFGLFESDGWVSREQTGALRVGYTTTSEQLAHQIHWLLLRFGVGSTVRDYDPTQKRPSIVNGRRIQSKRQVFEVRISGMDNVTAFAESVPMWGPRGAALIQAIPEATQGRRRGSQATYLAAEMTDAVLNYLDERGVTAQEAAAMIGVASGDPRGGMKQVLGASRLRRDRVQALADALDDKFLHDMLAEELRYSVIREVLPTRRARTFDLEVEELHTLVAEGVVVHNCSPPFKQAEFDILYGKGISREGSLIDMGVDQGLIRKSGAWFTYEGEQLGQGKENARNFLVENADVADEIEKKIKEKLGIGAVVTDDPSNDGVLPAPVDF

Cytochrome P450 2C9 [12] = biological target: T3, Cytochrome P450 2C9
fMet-Leu-Phe receptor = biological target: T6, fMet-Leu-Phe receptor (Homo sapiens, UniProt P21462); test: FPR ligands, dose response (AID 519); assay type: functional
T6 sequence (P21462 whole entry): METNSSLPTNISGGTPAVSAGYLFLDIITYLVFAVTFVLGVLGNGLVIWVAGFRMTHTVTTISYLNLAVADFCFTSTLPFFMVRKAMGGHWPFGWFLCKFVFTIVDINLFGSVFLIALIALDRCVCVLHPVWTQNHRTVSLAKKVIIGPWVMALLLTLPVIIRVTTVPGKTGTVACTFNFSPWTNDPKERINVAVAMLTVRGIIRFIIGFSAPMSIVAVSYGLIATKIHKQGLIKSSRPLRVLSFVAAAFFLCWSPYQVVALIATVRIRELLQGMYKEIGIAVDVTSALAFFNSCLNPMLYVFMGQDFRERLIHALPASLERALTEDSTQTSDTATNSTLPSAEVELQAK

Estrogen receptor = biological target: T7, Estrogen receptor (Homo sapiens, UniProt P03372);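 further: potency for inhibiting coactivator peptide recruitment to the receptor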
T7 sequence (P03372 whole entry): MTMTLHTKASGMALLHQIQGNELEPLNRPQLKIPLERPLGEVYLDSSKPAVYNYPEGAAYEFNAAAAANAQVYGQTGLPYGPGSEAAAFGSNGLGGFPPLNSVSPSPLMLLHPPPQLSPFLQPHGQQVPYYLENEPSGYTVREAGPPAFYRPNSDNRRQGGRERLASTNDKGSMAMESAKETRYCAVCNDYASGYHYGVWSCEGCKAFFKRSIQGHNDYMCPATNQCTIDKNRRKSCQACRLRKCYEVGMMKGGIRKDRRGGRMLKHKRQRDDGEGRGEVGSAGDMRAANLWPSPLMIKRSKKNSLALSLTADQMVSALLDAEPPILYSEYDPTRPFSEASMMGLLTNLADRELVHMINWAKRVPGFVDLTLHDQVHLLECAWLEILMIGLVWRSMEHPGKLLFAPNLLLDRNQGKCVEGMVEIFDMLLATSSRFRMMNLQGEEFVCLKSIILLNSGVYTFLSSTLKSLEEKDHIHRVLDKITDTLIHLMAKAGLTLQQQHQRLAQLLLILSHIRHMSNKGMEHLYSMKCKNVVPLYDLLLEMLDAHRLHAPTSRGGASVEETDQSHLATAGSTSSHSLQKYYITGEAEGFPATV

T3 sequence (P11712 whole entry): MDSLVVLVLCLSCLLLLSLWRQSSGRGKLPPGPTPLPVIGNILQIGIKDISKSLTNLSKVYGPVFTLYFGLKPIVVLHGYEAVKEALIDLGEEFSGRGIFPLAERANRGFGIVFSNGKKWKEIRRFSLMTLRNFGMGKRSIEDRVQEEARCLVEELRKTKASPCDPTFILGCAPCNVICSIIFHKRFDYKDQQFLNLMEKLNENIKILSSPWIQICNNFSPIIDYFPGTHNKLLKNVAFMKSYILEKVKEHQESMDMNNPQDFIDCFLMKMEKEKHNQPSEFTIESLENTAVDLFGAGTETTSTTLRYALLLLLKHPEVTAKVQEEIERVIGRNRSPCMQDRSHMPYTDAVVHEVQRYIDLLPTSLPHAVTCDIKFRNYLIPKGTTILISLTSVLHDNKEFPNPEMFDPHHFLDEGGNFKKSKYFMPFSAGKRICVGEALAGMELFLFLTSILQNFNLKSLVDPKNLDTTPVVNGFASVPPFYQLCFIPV
Sequence of Glyceraldehyde-3-phosphate dehydrogenase (P04406 whole entry): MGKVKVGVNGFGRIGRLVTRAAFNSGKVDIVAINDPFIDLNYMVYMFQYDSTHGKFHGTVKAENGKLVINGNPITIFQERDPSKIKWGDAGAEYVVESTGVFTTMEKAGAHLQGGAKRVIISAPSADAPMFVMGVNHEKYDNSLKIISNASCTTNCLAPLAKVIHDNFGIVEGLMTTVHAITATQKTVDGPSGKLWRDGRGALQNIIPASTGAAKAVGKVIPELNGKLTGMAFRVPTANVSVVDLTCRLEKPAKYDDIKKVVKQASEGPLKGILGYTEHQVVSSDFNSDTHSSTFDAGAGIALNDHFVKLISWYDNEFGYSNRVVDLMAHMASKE
Sequence of Cytochrome P450 2D6 (P10635 whole entry): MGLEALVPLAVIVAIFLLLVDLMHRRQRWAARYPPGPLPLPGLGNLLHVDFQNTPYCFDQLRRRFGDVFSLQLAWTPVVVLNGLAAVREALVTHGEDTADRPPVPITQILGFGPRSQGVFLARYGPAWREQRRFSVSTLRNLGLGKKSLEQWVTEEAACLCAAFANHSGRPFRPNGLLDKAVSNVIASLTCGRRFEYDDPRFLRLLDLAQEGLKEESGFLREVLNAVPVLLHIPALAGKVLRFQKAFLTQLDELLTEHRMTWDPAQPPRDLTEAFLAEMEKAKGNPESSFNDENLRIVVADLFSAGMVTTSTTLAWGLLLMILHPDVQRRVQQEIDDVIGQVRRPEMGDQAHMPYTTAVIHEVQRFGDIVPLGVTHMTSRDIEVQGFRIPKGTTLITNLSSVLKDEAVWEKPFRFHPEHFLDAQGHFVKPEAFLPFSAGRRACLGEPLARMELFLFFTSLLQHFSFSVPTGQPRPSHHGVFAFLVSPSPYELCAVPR
Sequence of Potassium voltage-gated channel subfamily KQT member 2 (O88943 whole entry W236L): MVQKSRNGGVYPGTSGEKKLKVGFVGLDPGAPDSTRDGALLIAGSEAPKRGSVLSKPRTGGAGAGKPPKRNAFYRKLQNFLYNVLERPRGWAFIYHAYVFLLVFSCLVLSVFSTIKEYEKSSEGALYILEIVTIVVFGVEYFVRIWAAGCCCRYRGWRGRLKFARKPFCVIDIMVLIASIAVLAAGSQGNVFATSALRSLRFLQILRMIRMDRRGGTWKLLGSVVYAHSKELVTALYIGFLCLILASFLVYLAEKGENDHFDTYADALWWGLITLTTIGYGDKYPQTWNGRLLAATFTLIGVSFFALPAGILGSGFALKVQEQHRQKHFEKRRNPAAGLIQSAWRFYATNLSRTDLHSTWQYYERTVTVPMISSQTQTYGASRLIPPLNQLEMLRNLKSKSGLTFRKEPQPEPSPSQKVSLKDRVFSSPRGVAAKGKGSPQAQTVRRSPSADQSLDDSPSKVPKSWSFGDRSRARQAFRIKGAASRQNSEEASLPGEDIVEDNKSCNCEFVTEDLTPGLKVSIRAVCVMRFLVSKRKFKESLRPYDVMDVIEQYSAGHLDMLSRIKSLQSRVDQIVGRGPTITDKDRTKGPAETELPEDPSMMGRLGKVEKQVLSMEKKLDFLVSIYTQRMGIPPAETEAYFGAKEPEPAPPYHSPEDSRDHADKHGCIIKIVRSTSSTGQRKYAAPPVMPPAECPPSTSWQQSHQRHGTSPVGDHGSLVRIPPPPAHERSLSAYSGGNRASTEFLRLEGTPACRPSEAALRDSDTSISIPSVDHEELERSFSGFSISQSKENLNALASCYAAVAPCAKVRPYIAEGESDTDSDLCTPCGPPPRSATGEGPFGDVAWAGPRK
Sequence of Cytochrome P450 2C19 (P33261 whole entry): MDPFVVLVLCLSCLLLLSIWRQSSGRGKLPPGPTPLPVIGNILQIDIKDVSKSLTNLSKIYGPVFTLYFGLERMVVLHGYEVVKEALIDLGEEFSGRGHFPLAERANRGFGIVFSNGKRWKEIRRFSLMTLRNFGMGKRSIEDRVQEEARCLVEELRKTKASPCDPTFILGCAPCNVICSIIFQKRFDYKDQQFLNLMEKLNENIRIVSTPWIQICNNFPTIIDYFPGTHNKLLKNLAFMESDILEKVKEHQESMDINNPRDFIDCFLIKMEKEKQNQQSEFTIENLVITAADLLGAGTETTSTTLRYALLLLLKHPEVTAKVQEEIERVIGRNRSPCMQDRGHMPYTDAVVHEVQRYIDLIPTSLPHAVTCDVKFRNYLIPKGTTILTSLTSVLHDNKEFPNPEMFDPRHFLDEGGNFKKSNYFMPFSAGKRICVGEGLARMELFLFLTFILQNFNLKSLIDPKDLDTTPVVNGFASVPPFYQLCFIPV

## COc1ccc(-c2csc(NC(=O)c3cccc(Cl)c3)n2)cc1
Vero
  CC50: > 40 µM (active)

## CCCNC(=O)c1cc2c(C(F)(F)F)nn(C)c2s1
Cytochrome P450 2D6
  AC50: inconclusive
Cytochrome P450 2C19
  AC50: 31.6 µM (inconclusive)

## O=C(NCCCN1CCOCC1)c1cc(-c2ccc(Br)cc2)on1
[1]
  IC50: > 80 µM (inactive)

## CCc1nnc(NC(=O)CCN(c2ccc(C)cc2)S(=O)(=O)c2ccccc2)s1
Prothrombin
  IC50: > 50 µM (not active)
Coagulation factor XII
  IC50: > 50 µM (inactive)

## O=C(CSc1nc2ccccc2c(=O)n1-c1ccc(F)cc1)Nc1ccc2c(c1)OCCO2
Vero
  CC50: > 40 µM (active)

## O=S(=O)(Nc1cnc2ccccc2c1)c1cc(Cl)ccc1F
[2]
  IC50: 4.26 µM (active)
[3]
  IC50: > 100 µM (not active)

## CN(c1ccccc1)S(=O)(=O)c1ccc(C(=O)Nc2nnc(-c3ccc(F)cc3)o2)cc1
cells
  IC50: > 50 µM (active)
[4]
  CC50: 17.2 µM (active)
Streptococcus
  EC50: 2.93 µM (active)
[5]
  CC50: 15.6 µM (active)
[6]
  CC50: 7.81 µM (active)
[7]
  EC50: 159 nM (active)

## Cc1ccc(S(=O)(=O)Nc2cnc3ccccc3c2)c(C)c1C
[2]
  IC50: > 100 µM (inactive)
[3]
  IC50: > 100 µM (not active)

## CC(=O)Nc1ccc(S(=O)(=O)N2CCCc3ccccc32)cc1
[8]
  IC50: > 80 µM (inactive)

## COc1ccc(C#CC2C=CC(Oc3cc(C)cc(C)c3)C(CO)O2)cc1 (stereo not given)
Cytochrome P450 2C9 [9]
  AC50: 2 µM (inconclusive)

## CC(C)c1nnc(NC(=O)c2nc(S(=O)(=O)Cc3ccccc3F)ncc2Cl)s1
[10]
  AC50: 4.25 µM (active)
[11]
  EC50: 8.4 µM (active)
Protein RecA
  EC50: 3.16 µM (active)

## O=C(O)c1cc(-c2ccccc2O)n[nH]1
[2]
  IC50: > 100 µM (inactive)
[3]
  IC50: > 100 µM (not active)

## CCCCC#CC1C=CC(Oc2ccc(C(=O)OC)cc2)C(COC(=O)OCC)O1 (stereo not given)
Cytochrome P450 2C9 [9]
  AC50: 3.16 µM (inconclusive)

## O=C(O)c1ccc(/C=N\N=C2c3ccccc3-c3ccccc32)cc1
Cytochrome P450 2C9 [12]
  AC50: 7.94 µM (inconclusive)
Cytochrome P450 2D6
  AC50: inconclusive

## CCCCC1C(=O)N(c2ccccc2)N(c2ccccc2)C1=O [PHENYLBUTAZONE]
fMet-Leu-Phe receptor
  Ki: 5.3 µM (active)
Cytochrome P450 2C9 [9]
  AC50: 31.6 µM (inconclusive)
Estrogen receptor
  IC50: > 50 µM (not active)
